According to publication PMC4308083, “Cytokine-Induced Loss of Glucocorticoid Function: Effect of Kinase Inhibitors, Long-Acting β2-Adrenoceptor Agonist and Glucocorticoid Receptor Ligands” (PLoS ONE, 2015):

Legend:
2×GRE reporter = assay: Modulation of dexamethasone/NR3C1 ligand-induced 2×GRE reporter activation (kinase inhibitors, TNF, formoterol) in BEAS-2B cells; format: cell-based, human; conditions: for 2×GRE reporter induction restored in presence of TNF, % of that induced by dexamethasone: 10 μM inhibitor 30 min pre-treatment, 6 h (Fig. 3A); for 2×GRE reporter induction restored in presence of TNF, % of that induced by dexamethasone / TNF-induced repression reversed to % of the response to dexamethasone / EC50: TNF 10 ng/ml; for Effect on dexamethasone-induced 2×GRE reporter activation (concentration-response): 30 min pre-treatment, 6 h (Fig. 3B, Fig. 4), JNK inhibitor VIII only at 30 μM, PKC inhibitors above 1 μM; for TNF-induced repression reversed to % of the response to dexamethasone: concentration-response, repression ~60% without inhibitor; for TNF-induced repression reversed to % of the response to dexamethasone / EC50: 6 h (Fig. 3B); for EC50: read-out: EC50 for reversal of TNF-induced repression of 2×GRE reporter; for 2×GRE reporter induction restored in presence of TNF, % of that induced by dexamethasone / Effect on dexamethasone-induced 2×GRE reporter activation (concentration-response) / TNF-induced repression reversed to % of the response to dexamethasone / EC50: dexamethasone
Description: BEAS-2B cells stably transfected with a glucocorticoid response element (2×GRE) driven luciferase reporter plasmid, pGL3.neo.TATA.neo [23], were cultured in medium containing 0.25 mg/ml G-418 (Promega, Madison, WI). Cells were grown to confluence in 24 or 48 well plates and incubated overnight in serum-free media prior to experiments. Cells were harvested in reporter lysis buffer and luciferase assays performed according to the manufacturer’s instructions (Firefly Luciferase Assay Kit; Biotium; Hayward, CA) using a 20/20n luminometer (Promega).
Data (n = 7), expressed as a percentage of Dex activation, are plotted as means ± S.E. BEAS-2B 2×GRE cells were pre-treated for 30 min with the indicated concentrations of B. PS or JNK or C. JNK in the presence or absence of 10 μM PS, before addition of 10 ng/ml TNF. After 1 h, 10 μM Dex was added and cells harvested 6 h later for luciferase assay. […] D+T indicates Dex plus TNF treatment.
Data (n = 3–4), expressed as fold activation, are plotted as means ± S.E. D+T indicates Dex plus TNF treatment.
Cells were harvested after 6 h for luciferase assays. Data (n = 7), expressed as fold activation, are plotted as means ± S.E. Lines of best fit were added in panel B. Statistical analyses were performed by ANOVA with a Dunnett’s test comparing each NR3C1 ligand alone versus in the presence of TNF and/or Form. *, P<0.05; **, P<0.01; ***, P<0.001.

[1] = test system: JUN (c-Jun) phosphorylation; assay: Western blot of TNF-induced JUN phosphorylation in BEAS-2B cells; format: cell-based, human; conditions: 30 min pre-treatment, TNF 10 ng/ml 15 min, western blot (S1 Fig.), read-out: EC50 for decrease of TNF-induced JUN phosphorylation
Description: (§1) Cells were lysed in 1× Laemmli buffer supplemented with phosphatase inhibitors (Sigma-Aldrich) and 1× complete protease inhibitor cocktail (Roche; Indianapolis, IN), size fractionated on 12% acrylamide gels and subsequently electro-transferred onto Hybond enhanced chemiluminescent membranes (GE Healthcare; Waukesha, WI). Membranes were blocked in 5% milk in tris-buffered saline containing 1% tween 20 and probed with antibodies against phospho-jun proto-oncogene (pJUN; pc-Jun) (9164; Cell Signaling Technology; Danvers, MA), nuclear factor of kappa light polypeptide gene enhancer in B-cells inhibitor, alpha (NFKBIA; IκBα) (sc-371; Santa Cruz Biotechnology; Dallas, TX), phospho-NFKBIA (9246; Cell Signaling Technology), phospho-AKT1 (9271S; Cell Signaling Technology), AKT (9272S; Cell Signaling Technology) and GAPDH (4699–9555(ST); AbD Serotec; Raleigh, NC). After washing, membranes were incubated with horseradish peroxidase-conjugated anti-rabbit (111–035–003; Jackson ImmunoResearch Laboratories Inc; West Grove, PA) or anti-mouse immunoglobulin (115–035–003; Jackson ImmunoResearch Laboratories Inc). Detection was by enhanced chemiluminescence (Pierce ECL Western Blotting Substrate; Thermo Fisher Scientific Inc.; Rockford, IL) and visualization by autoradiography. […]

[2] = test system: CDKN1C, DUSP1, RGS2 and TSC22D3 mRNA in BEAS-2B cells; assay: RT-PCR of glucocorticoid-inducible gene expression in BEAS-2B cells; conditions: for Effect on dexamethasone-induced mRNA expression of CDKN1C, DUSP1, RGS2, TSC22D3 in absence or presence of TNF: JNK inhibitor VIII 3 or 10 μM, PS-1145 10 μM, 6 h (Fig. 7)
Description: Cells were harvested 6 h after Dex addition.
BEAS-2B cells were pre-treated for 30 min with either 10 or 3 μM of the JNK MAPK inhibitor JNK inhibitor VIII (JNK) or 10 μM of the IKK2 inhibitor PS-1145 (PS), before addition of 10 ng/ml tumor necrosis factor-α (TNF).
Cells were harvested 6 h after NR3C1 ligand addition.

[3] = test system: NFKBIA (IκBα) phosphorylation; assay: Western blot of TNF-induced NFKBIA phosphorylation in BEAS-2B cells; format: cell-based, human; conditions: 30 min pre-treatment, TNF 2 min, western blot (S1 Fig.), read-out: EC50 for reduction of TNF-induced NFKBIA phosphorylation
Description: as §1

SMILES	2×GRE reporter induction restored in presence of TNF, % of that induced by dexamethasone (2×GRE reporter)	Effect on dexamethasone-induced 2×GRE reporter activation (concentration-response) (2×GRE reporter)	TNF-induced repression reversed to % of the response to dexamethasone (2×GRE reporter)	EC50 (2×GRE reporter)	EC50 [1]	Effect on dexamethasone-induced mRNA expression of CDKN1C, DUSP1, RGS2, TSC22D3 in absence or presence of TNF [2]	Additional effect of 10 μM PS-1145 on 2×GRE reporter activity with JNK inhibitor VIII (2×GRE reporter; up to 10 μM JNK inhibitor VIII, TNF, dexamethasone (Fig. 3C))	EC50 [3]	Effect on DUSP1 mRNA expression with dexamethasone plus TNF plus formoterol ([2]; 10 μM PS-1145, 6 h (Fig. 7))
CCOc1nc(NC(=O)Cc2cc(OC)ccc2OC)cc(N)c1C#N [JNK inhibitor VIII]	77%	modestly enhanced	87%	1600 nM	~300 nM	no significant effect			
O=C(Nc1cc(Cl)cc2c1[nH]c1cnccc12)c1cccnc1 [PS-1145]	73%	no effect	76%	600 nM		no significant effect	no obvious additional effect	~1000 nM	significantly enhanced
